Activity calls are given as the source filed them.
How the values were obtained:
[1] = target: T1, Short transient receptor potential channel 4 (Mus musculus, UniProt Q9QUQ5); assay: mouse TRPC4 channel activators, dose response, cell-based, HEK293 TRPC4/mu-opioid, Fluo-4 calcium (AID 434937); assay type: functional
T1 sequence (Q9QUQ5 whole entry): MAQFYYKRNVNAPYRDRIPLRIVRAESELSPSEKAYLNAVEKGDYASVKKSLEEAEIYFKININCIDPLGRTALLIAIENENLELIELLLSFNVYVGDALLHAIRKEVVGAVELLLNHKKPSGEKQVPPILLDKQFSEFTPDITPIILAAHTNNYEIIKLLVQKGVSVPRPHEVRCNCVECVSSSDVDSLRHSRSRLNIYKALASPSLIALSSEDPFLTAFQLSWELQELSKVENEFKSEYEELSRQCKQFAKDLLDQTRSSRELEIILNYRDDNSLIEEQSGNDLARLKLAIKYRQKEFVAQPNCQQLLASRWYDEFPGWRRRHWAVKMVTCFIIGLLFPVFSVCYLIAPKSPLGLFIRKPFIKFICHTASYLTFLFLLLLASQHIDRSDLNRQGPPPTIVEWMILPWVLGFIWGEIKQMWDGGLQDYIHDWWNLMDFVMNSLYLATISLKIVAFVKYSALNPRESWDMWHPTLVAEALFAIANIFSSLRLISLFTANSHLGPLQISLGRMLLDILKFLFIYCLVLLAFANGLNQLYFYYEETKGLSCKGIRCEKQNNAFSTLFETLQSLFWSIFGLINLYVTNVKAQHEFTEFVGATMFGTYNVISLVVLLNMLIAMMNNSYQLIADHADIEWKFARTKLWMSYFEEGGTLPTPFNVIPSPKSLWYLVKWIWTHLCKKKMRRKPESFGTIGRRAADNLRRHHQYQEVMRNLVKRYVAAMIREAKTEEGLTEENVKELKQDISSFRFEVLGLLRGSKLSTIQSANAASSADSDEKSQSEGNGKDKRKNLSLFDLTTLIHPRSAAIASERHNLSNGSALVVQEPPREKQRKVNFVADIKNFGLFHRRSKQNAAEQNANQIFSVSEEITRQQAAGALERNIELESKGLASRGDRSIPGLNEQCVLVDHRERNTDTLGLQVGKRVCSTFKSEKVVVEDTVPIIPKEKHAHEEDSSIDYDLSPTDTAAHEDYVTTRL

[2] = target: Cytochrome P450 3A4 (Homo sapiens, UniProt P08684); settings: Potency;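 also: confirmatory qHTS run detecting inhibitors and substrates of CYP3A4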
Cytochrome P450 3A4, sequence (P08684 whole entry, the tested form may be a part): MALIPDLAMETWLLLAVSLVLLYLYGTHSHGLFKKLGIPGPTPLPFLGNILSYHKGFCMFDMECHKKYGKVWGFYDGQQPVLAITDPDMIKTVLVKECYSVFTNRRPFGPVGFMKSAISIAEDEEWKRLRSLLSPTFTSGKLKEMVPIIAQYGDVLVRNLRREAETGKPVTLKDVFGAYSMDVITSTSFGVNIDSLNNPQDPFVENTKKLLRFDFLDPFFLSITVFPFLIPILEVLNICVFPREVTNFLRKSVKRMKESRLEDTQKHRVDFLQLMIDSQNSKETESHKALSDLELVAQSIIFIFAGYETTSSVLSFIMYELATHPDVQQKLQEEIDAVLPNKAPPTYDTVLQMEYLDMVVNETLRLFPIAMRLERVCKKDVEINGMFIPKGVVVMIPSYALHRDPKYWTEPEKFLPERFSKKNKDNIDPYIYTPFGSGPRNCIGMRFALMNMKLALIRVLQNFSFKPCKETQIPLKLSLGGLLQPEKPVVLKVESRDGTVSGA

[3] = target: T2, RNA-binding protein pos-1 (Caenorhabditis elegans, UniProt G5EF15); assay: inhibitors of POS-1/mex-3 RNA binding, dose response, biochemical, fluorescence polarization (AID 1964);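 also: purified POS-1 fused to maltose binding protein made in E. coli; potency of compounds blocking POS-1 binding to fluorescent RNA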
T2 sequence (G5EF15 whole entry): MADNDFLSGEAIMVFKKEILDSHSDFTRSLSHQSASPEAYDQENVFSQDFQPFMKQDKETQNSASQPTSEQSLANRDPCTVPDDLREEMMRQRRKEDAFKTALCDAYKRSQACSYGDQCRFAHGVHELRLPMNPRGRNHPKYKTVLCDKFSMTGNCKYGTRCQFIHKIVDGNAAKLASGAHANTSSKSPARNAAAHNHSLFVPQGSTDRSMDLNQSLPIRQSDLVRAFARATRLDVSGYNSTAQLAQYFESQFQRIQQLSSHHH

[4] = target: T3, Zinc finger protein mex-5 (Caenorhabditis elegans, UniProt Q9XUB2); assay: MEX-5/TCR-2 RNA interaction inhibitors, dose response, biochemical, C. elegans, fluorescence polarization (AID 1960)
T3 sequence (Q9XUB2 whole entry): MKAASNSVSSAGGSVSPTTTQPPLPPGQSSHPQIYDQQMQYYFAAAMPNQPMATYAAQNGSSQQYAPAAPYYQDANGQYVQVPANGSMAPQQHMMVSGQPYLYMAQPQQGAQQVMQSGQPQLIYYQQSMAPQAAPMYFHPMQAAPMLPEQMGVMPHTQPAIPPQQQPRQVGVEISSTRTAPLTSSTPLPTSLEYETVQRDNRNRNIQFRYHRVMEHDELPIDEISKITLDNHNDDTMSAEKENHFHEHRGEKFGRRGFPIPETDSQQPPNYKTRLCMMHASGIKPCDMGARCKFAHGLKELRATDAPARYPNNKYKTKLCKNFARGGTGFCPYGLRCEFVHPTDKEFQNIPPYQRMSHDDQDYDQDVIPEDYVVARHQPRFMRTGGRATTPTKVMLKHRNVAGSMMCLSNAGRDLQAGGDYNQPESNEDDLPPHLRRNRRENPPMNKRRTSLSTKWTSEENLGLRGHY

[5] = target: T4, Caspase-6 (Homo sapiens, UniProt P55212); assay: human caspase-6 inhibitors, dose response, biochemical, VEID-R110 fluorescence, cherry-pick (AID 720632)
T4 sequence (P55212 whole entry): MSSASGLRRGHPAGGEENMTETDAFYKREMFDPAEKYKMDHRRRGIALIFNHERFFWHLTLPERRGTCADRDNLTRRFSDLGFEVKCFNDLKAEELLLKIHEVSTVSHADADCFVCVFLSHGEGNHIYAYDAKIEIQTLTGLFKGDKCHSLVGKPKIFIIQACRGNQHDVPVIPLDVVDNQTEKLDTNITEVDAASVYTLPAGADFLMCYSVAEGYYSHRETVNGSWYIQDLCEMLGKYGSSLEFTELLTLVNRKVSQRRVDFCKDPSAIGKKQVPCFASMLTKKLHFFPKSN

[6] = target: T5, Cytochrome P450 1A2 (Homo sapiens, UniProt P05177);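 also: PubChem cytochrome P450 panel assay, CYP1A2 panel member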
T5 sequence (P05177 whole entry): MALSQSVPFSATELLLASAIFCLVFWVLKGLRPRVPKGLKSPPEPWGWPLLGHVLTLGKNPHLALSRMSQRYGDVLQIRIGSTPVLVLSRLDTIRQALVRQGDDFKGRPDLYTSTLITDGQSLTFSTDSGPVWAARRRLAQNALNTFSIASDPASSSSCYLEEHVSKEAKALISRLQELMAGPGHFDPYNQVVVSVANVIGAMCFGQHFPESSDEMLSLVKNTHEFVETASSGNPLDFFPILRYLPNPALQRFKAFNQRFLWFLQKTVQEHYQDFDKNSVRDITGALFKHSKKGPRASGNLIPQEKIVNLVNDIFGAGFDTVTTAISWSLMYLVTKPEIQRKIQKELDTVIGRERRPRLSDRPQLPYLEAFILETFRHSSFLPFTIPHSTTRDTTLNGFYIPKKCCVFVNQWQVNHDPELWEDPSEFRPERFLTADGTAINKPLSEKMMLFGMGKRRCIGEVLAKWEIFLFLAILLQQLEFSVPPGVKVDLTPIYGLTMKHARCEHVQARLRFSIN

[7] = target: Cytochrome P450 2C9 (Homo sapiens, UniProt P11712)
Cytochrome P450 2C9, sequence (P11712 whole entry): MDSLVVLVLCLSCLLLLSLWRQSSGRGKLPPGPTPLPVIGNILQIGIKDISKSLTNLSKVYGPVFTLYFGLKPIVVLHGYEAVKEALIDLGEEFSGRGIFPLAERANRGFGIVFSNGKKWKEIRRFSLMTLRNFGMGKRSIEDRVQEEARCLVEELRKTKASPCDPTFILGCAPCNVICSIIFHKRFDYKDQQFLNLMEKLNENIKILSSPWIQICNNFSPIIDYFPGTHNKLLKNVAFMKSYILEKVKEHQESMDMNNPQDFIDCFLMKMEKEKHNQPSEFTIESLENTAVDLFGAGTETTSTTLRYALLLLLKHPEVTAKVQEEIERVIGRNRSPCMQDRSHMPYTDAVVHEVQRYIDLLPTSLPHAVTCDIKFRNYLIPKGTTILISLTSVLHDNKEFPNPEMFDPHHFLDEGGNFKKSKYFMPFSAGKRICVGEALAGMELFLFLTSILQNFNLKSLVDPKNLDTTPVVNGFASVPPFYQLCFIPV

[8] = target: T6, Protein skinhead-1 (Caenorhabditis elegans, UniProt P34707); assay type: functional
T6 sequence (P34707 whole entry): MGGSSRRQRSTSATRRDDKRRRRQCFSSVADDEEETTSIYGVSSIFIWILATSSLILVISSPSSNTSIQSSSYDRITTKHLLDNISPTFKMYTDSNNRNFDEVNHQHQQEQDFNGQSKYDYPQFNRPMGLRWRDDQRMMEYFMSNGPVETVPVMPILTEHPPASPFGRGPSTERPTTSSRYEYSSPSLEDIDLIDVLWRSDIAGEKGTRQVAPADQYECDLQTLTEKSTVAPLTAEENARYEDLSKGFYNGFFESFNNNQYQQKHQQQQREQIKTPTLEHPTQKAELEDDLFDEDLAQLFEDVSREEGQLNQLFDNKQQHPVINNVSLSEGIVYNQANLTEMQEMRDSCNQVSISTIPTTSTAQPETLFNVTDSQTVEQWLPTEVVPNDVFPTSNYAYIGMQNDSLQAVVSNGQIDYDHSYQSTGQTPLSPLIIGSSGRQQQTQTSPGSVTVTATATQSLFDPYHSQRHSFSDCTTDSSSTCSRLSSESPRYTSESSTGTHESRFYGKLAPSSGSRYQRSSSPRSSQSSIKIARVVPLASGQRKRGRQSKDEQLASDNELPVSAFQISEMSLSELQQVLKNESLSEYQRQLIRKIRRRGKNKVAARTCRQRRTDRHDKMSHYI

[9] = target: Genome polyprotein (dengue virus type 2, UniProt P29990); assay: Dengue-2 NS5 methyltransferase inhibitors, primary screen, biochemical, confirmation dose response (AID 588689); assay type: functional
Genome polyprotein, sequence (P29990 2492-3391 limits assumed): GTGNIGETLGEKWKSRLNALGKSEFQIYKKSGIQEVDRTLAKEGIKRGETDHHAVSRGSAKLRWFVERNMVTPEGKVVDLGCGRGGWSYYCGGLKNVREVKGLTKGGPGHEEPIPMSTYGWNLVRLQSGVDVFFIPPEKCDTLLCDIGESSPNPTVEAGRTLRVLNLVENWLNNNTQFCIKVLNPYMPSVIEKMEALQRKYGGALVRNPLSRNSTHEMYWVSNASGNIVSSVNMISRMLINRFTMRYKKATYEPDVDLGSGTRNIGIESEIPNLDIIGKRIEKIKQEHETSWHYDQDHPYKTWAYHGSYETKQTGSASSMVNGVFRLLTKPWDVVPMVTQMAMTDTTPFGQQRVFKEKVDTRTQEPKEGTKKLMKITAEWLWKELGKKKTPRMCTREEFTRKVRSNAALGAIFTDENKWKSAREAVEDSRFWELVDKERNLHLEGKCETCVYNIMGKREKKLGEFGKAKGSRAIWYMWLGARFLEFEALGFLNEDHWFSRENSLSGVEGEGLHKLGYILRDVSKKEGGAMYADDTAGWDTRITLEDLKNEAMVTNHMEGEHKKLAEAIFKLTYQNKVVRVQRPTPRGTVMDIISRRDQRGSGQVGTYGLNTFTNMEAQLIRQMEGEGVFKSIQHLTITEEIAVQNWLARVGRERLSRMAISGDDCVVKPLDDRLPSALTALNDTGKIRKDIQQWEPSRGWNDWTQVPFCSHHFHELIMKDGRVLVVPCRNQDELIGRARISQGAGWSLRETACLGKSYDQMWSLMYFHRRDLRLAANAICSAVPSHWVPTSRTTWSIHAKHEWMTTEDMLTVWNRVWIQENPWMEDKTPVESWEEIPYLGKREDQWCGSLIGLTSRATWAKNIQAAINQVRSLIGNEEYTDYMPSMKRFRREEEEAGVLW

[10] = tested on: H4; assay: Luminescence Cell-Based Dose Response HTS to Identify Activators of 5'UTR Stem-Loop Driven Prion Protein mRNA Translation in H4 Neuroglioblastoma Cells. [Related pubchem assays: 1829 (Project Summary), 1814 (Primary HTS)]; assay type: functional; settings: Homo sapiens
[11] = Luminescence Cell-Based Dose Response HTS to Identify Activators of Luciferase Translation or Activity in H4 […] Cells. [Related pubchem assays: 1829 (Project Summary), 1814 (Primary HTS)]; assay type: functional
[12] = Luminescence Cell-Based Dose Confirmation HTS to Identify Activators of 5'UTR Stem-Loop Driven Alpha-Synuclein mRNA Translation in H4 Neuroglioblastoma Cells. [Related pubchem assays: 1829 (Project Summary), 1814 (Primary HTS)]; assay type: functional
[13] = target: T7, Polyadenylate-binding protein 1 (Homo sapiens, UniProt P11940); assay: PABP1 MLLE–PAM2 interaction inhibitors, dose response, miRNA deadenylation inhibitor project, biochemical, fluorescence polarization, Cy5-PAM2 peptide, secondary (AID 602260); assay type: functional; settings: read-out: IC50_Mean
T7 sequence (P11940 whole entry): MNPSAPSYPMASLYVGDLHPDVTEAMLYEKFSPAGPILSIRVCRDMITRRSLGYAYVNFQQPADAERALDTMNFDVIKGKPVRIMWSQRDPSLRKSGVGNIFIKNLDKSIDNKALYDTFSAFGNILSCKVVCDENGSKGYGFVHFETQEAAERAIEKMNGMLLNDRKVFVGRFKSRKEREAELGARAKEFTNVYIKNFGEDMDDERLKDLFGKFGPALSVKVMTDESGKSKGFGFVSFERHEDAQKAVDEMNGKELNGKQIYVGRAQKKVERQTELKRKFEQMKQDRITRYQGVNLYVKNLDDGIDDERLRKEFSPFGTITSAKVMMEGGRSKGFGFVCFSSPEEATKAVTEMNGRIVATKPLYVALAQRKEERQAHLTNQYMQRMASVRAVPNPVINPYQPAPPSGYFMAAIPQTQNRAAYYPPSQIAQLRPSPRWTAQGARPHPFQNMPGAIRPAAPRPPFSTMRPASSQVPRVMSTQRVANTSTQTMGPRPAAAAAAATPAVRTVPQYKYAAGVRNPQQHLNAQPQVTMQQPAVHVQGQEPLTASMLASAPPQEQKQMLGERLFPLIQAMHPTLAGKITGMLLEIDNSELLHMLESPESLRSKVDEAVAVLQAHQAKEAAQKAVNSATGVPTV

[14] = target: T7, Polyadenylate-binding protein 1; assay: PABP1 MLLE–PAM2 binding inhibitor potency, dose response, biochemical, fluorescence polarization, FITC-PAM2 peptide (AID 602259); assay type: functional; settings: read-out: IC50_Mean

COc1cccc(C(=O)OC2CCCN(C)C2)c1 (configuration not stated)
EC50 [1]: 0.376 µM (active)

O=C1C=C2C=CC3C[C@@]2(O1)C1CCCCN31 (some centres not stated)
AC50 [2]: 31.6 µM (inconclusive)

O=C(O)CCC(=O)NCc1ccc2[nH]c3c(c2c1)CCCC3
EC50 [3]: 82.1 µM (active)
EC50 [4]: 112 µM (active)
AC50 [5]: 25.6 µM (active)

COc1ccc(/C=C(\C#N)C(=O)NCC2CCCO2)cc1OC (configuration not stated)
EC50 [3]: > 300 µM (not active)
AC50 [6]: 22.4 µM (inconclusive)
AC50 [7]: inconclusive
IC50 [8]: > 100 µM (inactive)
EC50 [4]: > 300 µM (not active)

Cc1csc2c(N3CCN(C(=O)Nc4ccccc4)CC3)ncnc12
EC50 [1]: 1.68 µM (active)

Cc1ccc(NC(=S)NC2CC3CCC(C2)N3Cc2ccco2)c(C)c1 (configuration not stated)
EC50 [1]: 5.96 µM (active)

CC1=NN(c2ccc(Br)cc2)C(=O)/C1=C/c1ccc(-c2ccccc2C(=O)O)o1
IC50 [9]: 30 µM (active)

COc1ccc(-c2ccccc2C2NC(C(=O)O)CCC2C)cc1 (configuration not stated)
AC50 [2]: 5.01 µM (inconclusive)

Cc1c(N=C=O)cccc1N=C=O
AC50 [2]: 15.8 µM (inconclusive)

CC(=O)N(C)c1ccc(NC(=O)Cc2cccs2)cc1
AC50 [5]: 31.8 µM (active)

c1ccc(-c2ccc(CN3C[C@@H]4C(c5ccccc5)C5(c6cccnc6)CC4(C5)[C@H]3c3ccccc3)cc2)cc1 (some centres not stated)
AC50 [2]: 15.8 µM (inconclusive)

CCOc1cc(OCC)c(C(C)=O)cc1OCC
AC50 [2]: 15.8 µM (inconclusive)

COc1cc(/C=C2/C(=N)N3C(c4ccccc4)=CSC3=NC2=O)ccc1OCC(=O)O
EC50 [10]: > 120 µM (not active)
EC50 [11]: 12.7 µM (active)
EC50 [12]: 19.6 µM (active)
IC50 [9]: > 100 µM (active)

COCCn1nnnc1C(c1cc2ccc(OC)cc2nc1O)N1CCN(C2CCCCC2)CC1 (configuration not stated)
EC50 [1]: 3.76 µM (active)

CSc1ccccc1NC(=O)CN(C)C(=O)COc1cccc2cccnc12
AC50 [5]: 29.5 µM (active)

O=C(O)C/C(=C\c1cc(Cl)c2c(c1)OCO2)c1nc2ccccc2s1
AC50 [5]: 7.56 µM (active)

COc1cc2c(Cc3c4c5c(cc(OC)c(OC)c5c5c(OC)c(OC)ccc35)CCN4C)c3c4c(cc(OC)c(OC)c4c2cc1OC)CCN3C
AC50 [2]: 3.16 µM (inconclusive)

Cc1cc[n+](-c2[n-]c(=O)sc2C=NNC(=O)c2ccncc2)cc1
IC50 [13]: > 66 µM (inactive)
IC50 [14]: 36 µM (inactive)
IC50 [9]: 83.8 µM (active)

Cc1nc(NC2CCCCC2)c2nc(-c3ccccc3)n(CCCN(C)C)c2n1
AC50 [2]: 20 µM (inconclusive)

COC(=O)CNC(=O)[C@@]1(C)C=C[C@@H](Cc2ccccc2)N1C(C)=O
AC50 [2]: 20 µM (inconclusive)

O=Nc1ccc(Nc2ccccc2)cc1
AC50 [2]: 20 µM (inconclusive)

CCCCN(CC)CCCNC(=O)c1csc2c1CCCCC2
EC50 [1]: 1.19 µM (active)

CSc1nc(O)c(C(c2ccc(OC(C)C)cc2)c2c(O)nc(SC)nc2O)c(O)n1
IC50 [9]: 32.9 µM (active)

CN(C)C(CNC(=O)/C=C/c1cccc(Cl)c1)c1ccccc1 (configuration not stated)
EC50 [1]: 0.133 µM (active)

COC(=O)CC1[C@@]2(C)C[C@]34OC5(C)OC6(C7CC(=O)OC(c8ccoc8)[C@]7(C)CCC6(O5)[C@]13C)C(OC(C)=O)[C@]4(OC(C)=O)C2OC(C)=O (some centres not stated)
AC50 [2]: 20 µM (inconclusive)

CN(C)c1ccc2c(c1)[C@@H]1C[C@@H](CC(=O)N3CCOCC3)O[C@@H](CO)[C@@H]1O2
AC50 [5]: 42.4 µM (active)
